# Reference: US10035790B2, “RORγ modulators” (BRISTOL-MYERS SQUIBB COMPANY, priority 2012, dated 2018)
# Target: T1, ligand binding domain of human RORγ (A262-S507) (Homo sapiens, UniProt P51449)
# T1 construct: made in house; host or cells: E. coli
# T1 sequence (P51449 262-507): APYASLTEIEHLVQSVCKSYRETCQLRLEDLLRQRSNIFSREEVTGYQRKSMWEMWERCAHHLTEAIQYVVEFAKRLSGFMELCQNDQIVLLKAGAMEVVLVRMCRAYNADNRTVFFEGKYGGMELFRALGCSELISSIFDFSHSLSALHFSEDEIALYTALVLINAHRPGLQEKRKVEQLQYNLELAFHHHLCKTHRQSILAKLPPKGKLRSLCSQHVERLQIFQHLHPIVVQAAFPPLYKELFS
# Assay: General RORγ SPA binding assay (competition with [3H]25-hydroxycholesterol)
# Conditions: IC50, RORγ SPA binding assay, inhibition of [3H]25-hydroxycholesterol binding
# Method in brief: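 N-terminally His-tagged protein was expressed in E. coli and nickel-purified. Then 50 nM protein was preincubated with compound for 15 min at room temperature in PBS with 0.5% fatty acid free BSA, followed by radioligand for 15 min and copper His-tag SPA beads for 30 min. IC50 came from percent inhibition of binding.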
row,Compound,IC50
1,"CC(O)(COc1ccnc(C(F)(F)F)n1)c1cnc(N)nc1C1CCN(C(=O)Oc2c(F)cccc2F)CC1 (stereo not shown) [Compound D46, 2,6-Difluorophenyl 4-[2-amino-5-(1-hydroxy-1-methyl-2-{[2-(trifluoromethyl)pyrimidin-4-yl]oxy}ethyl)pyrimidin-4-yl]piperidine-1-carboxylate]",6.3 nM
2,"CC(O)(COc1cccc(C(F)(F)F)n1)c1cnc(N)nc1C1CCN(C(=O)Oc2c(F)cccc2F)CC1 (stereo not shown) [Compound D48, 2,6-Difluorophenyl 4-[2-amino-5-(1-hydroxy-1-methyl-2-{[6-(trifluoromethyl)pyridin-2-yl]oxy}ethyl)pyrimidin-4-yl]piperidine-1-carboxylate]",30.3 nM
3,"CC(O)(COc1ccnc(C(F)(F)F)n1)c1cnc(N)nc1C1CCN(C(=O)Oc2ccccc2F)CC1 (stereo not shown) [Compound D49, 2-Fluorophenyl 4-[2-amino-5-(1-hydroxy-1-methyl-2-{[2-(trifluoromethyl)pyrimidin-4-yl]oxy}ethyl)pyrimidin-4-yl]piperidine-1-carboxylate]",7.2 nM
4,"CC(O)(COc1ccnc(C(F)(F)F)n1)c1cnc(N)nc1C1CCN(C(=O)Oc2ccc(F)cc2)CC1 (stereo not shown) [Compound D50, 4-Fluorophenyl 4-[2-amino-5-(1-hydroxy-1-methyl-2-{[2-(trifluoromethyl)pyrimidin-4-yl]oxy}ethyl)pyrimidin-4-yl]piperidine-1-carboxylate]",15 nM

# Same assay, conditions: RORγ SPA binding assay, inhibition of [3H]25-hydroxycholesterol binding; read-out: IC50
row,Compound,IC50
1,"CC(=O)Nc1ncc(C(C)(O)COc2ccnc(C(F)(F)F)n2)c(C2CCN(C(=O)Nc3c(F)cccc3F)CC2)n1 (stereo not shown) [Compound D31, 4-[2-(Acetylamino)-5-(1-hydroxy-1-methyl-2-{[2-(trifluoromethyl)pyrimidin-4-yl]oxy}ethyl)pyrimidin-4-yl]-N-(2,6-difluorophenyl)piperidine-1-carboxamide]",119 nM
2,"CC(=O)Nc1ncc(C(C)(O)COc2cccc(C(F)(F)F)n2)c(C2CCN(C(=O)Nc3c(F)cccc3F)CC2)n1 (stereo not shown) [Compound D32, 4-[2-(Acetylamino)-5-(1-hydroxy-1-methyl-2-{[6-(trifluoromethyl)pyridin-2-yl]oxy}ethyl)pyrimidin-4-yl]-N-(2,6-difluorophenyl)piperidine-1-carboxamide]",13.9 nM
3,"CC(=O)Nc1ncc(C(C)(O)COc2ccnc(C(F)(F)F)n2)c(C2CCN(C(=O)Cc3c(F)cccc3F)CC2)n1 (stereo not shown) [Compound D33, N-[4-{1-[(2,6-Difluorophenyl)acetyl]piperidin-4-yl}-5-(1-hydroxy-1-methyl-2-{[2-(trifluoromethyl)pyrimidin-4-yl]oxy}ethyl)pyrimidin-2-yl]acetamide]",14 nM
4,"CC(O)(COc1ccnc(C(F)(F)F)n1)c1cnc(NC2CC2)nc1C1CCN(C(=O)Nc2c(F)cccc2F)CC1 (stereo not shown) [Compound D34, 4-[2-(Cyclopropylamino)-5-(1-hydroxy-1-methyl-2-{[2-(trifluoromethyl)pyrimidin-4-yl]oxy}ethyl)pyrimidin-4-yl]-N-(2,6-difluorophenyl)piperidine-1-carboxamide]",15 nM
5,"CCNc1ncc(C(C)(O)COc2ccnc(C(F)(F)F)n2)c(C2CCN(C(=O)Nc3c(F)cccc3F)CC2)n1 (stereo not shown) [Compound D35, N-(2,6-Difluorophenyl)-4-[2-(ethylamino)-5-(1-hydroxy-1-methyl-2-{[2-(trifluoromethyl)pyrimidin-4-yl]oxy}ethyl)pyrimidin-4-yl]piperidine-1-carboxamide]",14.8 nM
6,"CNc1ncc(C(C)(O)COc2ccnc(C(F)(F)F)n2)c(C2CCN(C(=O)Nc3c(F)cccc3F)CC2)n1 (stereo not shown) [Compound D36, N-(2,6-Difluorophenyl)-4-[5-(1-hydroxy-1-methyl-2-{[2-(trifluoromethyl)pyrimidin-4-yl]oxy}ethyl)-2-(methylamino)pyrimidin-4-yl]piperidine-1-carboxamide]",15.8 nM
7,"COc1ccc(CNc2ncc(C(C)(O)COc3ccnc(C(F)(F)F)n3)c(C3CCN(C(=O)Nc4c(F)cccc4F)CC3)n2)c(OC)c1 (stereo not shown) [Compound D37, 4-[2-({[2,4-Bis(methyloxy)phenyl]methyl}amino)-5-(1-hydroxy-1-methyl-2-{[2-(trifluoromethyl)pyrimidin-4-yl]oxy}ethyl)pyrimidin-4-yl]-N-(2,6-difluorophenyl)piperidine-1-carboxamide]",112 nM
8,"CN(C)c1ncc(C(C)(O)COc2ccnc(C(F)(F)F)n2)c(C2CCN(C(=O)Nc3c(F)cccc3F)CC2)n1 (stereo not shown) [Compound D38, N-(2,6-Difluorophenyl)-4-[2-(dimethylamino)-5-(1-hydroxy-1-methyl-2-{[2-(trifluoromethyl)pyrimidin-4-yl]oxy}ethyl)pyrimidin-4-yl]piperidine-1-carboxamide]",25.9 nM
9,"CC(O)(COc1ccnc(C(F)(F)F)n1)c1cnc(NCC(F)F)nc1C1CCN(C(=O)Nc2c(F)cccc2F)CC1 (stereo not shown) [Compound D39, 4-{2-[(2,2-Difluoroethyl)amino]-5-(1-hydroxy-1-methyl-2-{[2-(trifluoromethyl)pyrimidin-4-yl]oxy}ethyl)pyrimidin-4-yl}-N-(2,6-difluorophenyl)piperidine-1-carboxamide]",5.1 nM
10,"CC(C)Oc1ncc(C(C)(O)COc2ccnc(C(F)(F)F)n2)c(C2CCN(C(=O)Nc3c(F)cccc3F)CC2)n1 (stereo not shown) [Compound D40, N-(2,6-Difluorophenyl)-4-{5-(1-hydroxy-1-methyl-2-{[2-(trifluoromethyl)pyrimidin-4-yl]oxy}ethyl)-2-[(1-methylethyl)oxy]pyrimidin-4-yl}piperidine-1-carboxamide]",29.6 nM
11,"CC(O)(COc1ccnc(C(F)(F)F)n1)c1cnc(OCC(F)F)nc1C1CCN(C(=O)Nc2c(F)cccc2F)CC1 (stereo not shown) [Compound D41, 4-{2-[(2,2-Difluoroethyl)oxy]-5-(1-hydroxy-1-methyl-2-{[2-(trifluoromethyl)pyrimidin-4-yl]oxy}ethyl)pyrimidin-4-yl}-N-(2,6-difluorophenyl)piperidine-1-carboxamide]",101 nM
12,"CC(O)(COc1ccnc(C(F)(F)F)n1)c1cnc(OC(CF)CF)nc1C1CCN(C(=O)Nc2c(F)cccc2F)CC1 (stereo not shown) [Compound D42, N-(2,6-Difluorophenyl)-4-[2-{[2-fluoro-1-(fluoromethyl)ethyl]oxy}-5-(1-hydroxy-1-methyl-2-{[2-(trifluoromethyl)pyrimidin-4-yl]oxy}ethyl)pyrimidin-4-yl]piperidine-1-carboxamide]",348 nM
13,"CC(O)(COc1ccnc(C(F)(F)F)n1)c1cnc(OCCF)nc1C1CCN(C(=O)Nc2c(F)cccc2F)CC1 (stereo not shown) [Compound D43, N-(2,6-Difluorophenyl)-4-{2-[(2-fluoroethyl)oxy]-5-(1-hydroxy-1-methyl-2-{[2-(trifluoromethyl)pyrimidin-4-yl]oxy}ethyl)pyrimidin-4-yl}piperidine-1-carboxamide]",22 nM
14,"COc1ncc(C(C)(O)COc2ccnc(C(F)(F)F)n2)c(C2CCN(C(=O)Nc3c(F)cccc3F)CC2)n1 (stereo not shown) [Compound D44, N-(2,6-Difluorophenyl)-4-[5-(1-hydroxy-1-methyl-2-{[2-(trifluoromethyl)pyrimidin-4-yl]oxy}ethyl)-2-(methyloxy)pyrimidin-4-yl]piperidine-1-carboxamide]",4.6 nM
15,"COc1ncc(C(C)(O)COc2cccc(C(F)(F)F)n2)c(C2CCN(C(=O)Nc3c(F)cccc3F)CC2)n1 (stereo not shown) [Compound D45, N-(2,6-Difluorophenyl)-4-[5-(1-hydroxy-1-methyl-2-{[6-(trifluoromethyl)pyridin-2-yl]oxy}ethyl)-2-(methyloxy)pyrimidin-4-yl]piperidine-1-carboxamide]",3.4 nM
16,"Cc1ncc(C(C)(O)Cc2cccc(C(F)(F)F)n2)c(C2CCN(C(=O)Nc3c(F)cccc3F)CC2)n1 (stereo not shown) [Compound D47, N-(2,6-Difluorophenyl)-4-(5-{1-hydroxy-1-methyl-2-[6-(trifluoromethyl)pyridin-2-yl]ethyl}-2-methylpyrimidin-4-yl)piperidine-1-carboxamide]",52.9 nM
17,"COCC(C)(OCc1cc(C)cc(C)c1)c1cnc(C)nc1C1CCN(C(=O)Cc2c(F)cccc2F)CC1 (stereo not shown) [Compound E1, 2-(2,6-Difluorophenyl)-1-(4-(5-(2-(3,5-dimethylbenzyloxy)-1-methoxypropan-2-yl)-2-methylpyrimidin-4-yl)piperidin-1-yl)ethanone]",6.3 nM
18,"CCOCC(C)(OCc1cc(C)cc(C)c1)c1cnc(C)nc1C1CCN(C(=O)Cc2c(F)cccc2F)CC1 (stereo not shown) [Compound E2, 2-(2,6-difluorophenyl)-1-(4-(5-(2-((3,5-dimethylbenzyl)oxy)-1-ethoxypropan-2-yl)-2-methylpyrimidin-4-yl)piperidin-1-yl)ethanone]",5.3 nM
19,"Cc1cc(C)cc(COC(C)(COCC(O)CO)c2cnc(C)nc2C2CCN(C(=O)Cc3c(F)cccc3F)CC2)c1 (stereo not shown) [Compound E3, 2-(2,6-difluorophenyl)-1-(4-(5-(1-(2,3-dihydroxypropoxy)-2-((3,5-dimethylbenzyl)oxy)propan-2-yl)-2-methylpyrimidin-4-yl)piperidin-1-yl)ethanone]",6.2 nM
20,"Cc1cc(C)cc(COC(C)(CO)c2cnc(C)nc2C2CCN(C(=O)Cc3c(F)cccc3F)CC2)c1 (stereo not shown) [Compound E4, 2-(2,6-difluorophenyl)-1-(4-(5-(2-((3,5-dimethylbenzyl)oxy)-1-hydroxypropan-2-yl)-2-methylpyrimidin-4-yl)piperidin-1-yl)ethanone]",16.7 nM
21,"Cc1cc(C)cc(COC(C)(C)c2cnc(C)nc2C2CCN(C(=O)Cc3c(F)cccc3F)CC2)c1 [Compound E5, 2-(2,6-Difluorophenyl)-1-(4-(5-(2-(3,5-dimethylbenzyloxy)propan-2-yl)-2-methylpyrimidin-4-yl)piperidin-1-yl)ethanone]",10.6 nM
